# Measurements reported in ChEMBL document CHEMBL4837243, “Discovery of TDI-10229: A Potent and Orally Bioavailable Inhibitor of Soluble Adenylyl Cyclase (sAC, ADCY10)” (ACS Med Chem Lett, 2021).
# Assays:
# [1] = molecular target: Adenylate cyclase type 10 (Homo sapiens, UniProt Q96PN6)
# Description: Inhibition of human soluble adenylyl cyclase assessed as reduction in cAMP levels in the presence of alpha-32p labeled ATP by biochemical assay
# [2] = Permeability of the compound in PRISMA HT buffer at pH 7.4 at 10 umol/L incubated for 3 hrs bt PAMPA based LC/MS/MS analysis; format: ADME; conditions: dose 10 µmol/L, read-out: permeability
# [3] = Octanol-water partition coefficient, logD of the compound at pH 7.4 by HPLC analysis; format: physicochemical
# [4] = Kinetic solubility of compound by UV- absorbance analysis
# [5] = Bioavailability in mouse; format: ADME, organism-based; conditions: in vivo, dose 20 mg/kg
# [6] = AUC in CD1 mouse at 20 mg/kg, po measured up to 24 hrs; format: ADME, organism-based; parameters: route oral, dose 20 mg/kg, time <=24; conditions: in vivo
# [7] = AUC in CD1 mouse at 20 mg/kg, ip measured up to 24 hrs; format: ADME, organism-based; parameters: route intraperitoneal, dose 20 mg/kg, time <=24; conditions: in vivo
# [8] = Cmax in CD1 mouse at 20 mg/kg, po measured up to 24 hrs; format: ADME, organism-based; parameters: route oral, dose 20 mg/kg, time <=24; conditions: in vivo
# [9] = Cmax in CD1 mouse at 20 mg/kg, ip measured up to 24 hrs; format: ADME, organism-based; parameters: route intraperitoneal, dose 20 mg/kg, time <=24; conditions: in vivo
# [10] = Mean residence time in CD1 mouse at 20 mg/kg, po measured up to 24 hrs; format: ADME, organism-based; conditions: in vivo
# [11] = Mean residence time in CD1 mouse at 20 mg/kg, ip measured up to 24 hrs; format: ADME, organism-based; conditions: in vivo
# [12] = Oral bioavailability in mouse; format: ADME, organism-based; conditions: in vivo
# [13] = Clearance in mouse liver microsomes; format: ADME, Microsome; conditions: read-out: CLH
# [14] = Clearance in human liver microsomes; format: ADME, Microsome; conditions: read-out: CLH
# Chain of Adenylate cyclase type 10 (Q96PN6 whole entry): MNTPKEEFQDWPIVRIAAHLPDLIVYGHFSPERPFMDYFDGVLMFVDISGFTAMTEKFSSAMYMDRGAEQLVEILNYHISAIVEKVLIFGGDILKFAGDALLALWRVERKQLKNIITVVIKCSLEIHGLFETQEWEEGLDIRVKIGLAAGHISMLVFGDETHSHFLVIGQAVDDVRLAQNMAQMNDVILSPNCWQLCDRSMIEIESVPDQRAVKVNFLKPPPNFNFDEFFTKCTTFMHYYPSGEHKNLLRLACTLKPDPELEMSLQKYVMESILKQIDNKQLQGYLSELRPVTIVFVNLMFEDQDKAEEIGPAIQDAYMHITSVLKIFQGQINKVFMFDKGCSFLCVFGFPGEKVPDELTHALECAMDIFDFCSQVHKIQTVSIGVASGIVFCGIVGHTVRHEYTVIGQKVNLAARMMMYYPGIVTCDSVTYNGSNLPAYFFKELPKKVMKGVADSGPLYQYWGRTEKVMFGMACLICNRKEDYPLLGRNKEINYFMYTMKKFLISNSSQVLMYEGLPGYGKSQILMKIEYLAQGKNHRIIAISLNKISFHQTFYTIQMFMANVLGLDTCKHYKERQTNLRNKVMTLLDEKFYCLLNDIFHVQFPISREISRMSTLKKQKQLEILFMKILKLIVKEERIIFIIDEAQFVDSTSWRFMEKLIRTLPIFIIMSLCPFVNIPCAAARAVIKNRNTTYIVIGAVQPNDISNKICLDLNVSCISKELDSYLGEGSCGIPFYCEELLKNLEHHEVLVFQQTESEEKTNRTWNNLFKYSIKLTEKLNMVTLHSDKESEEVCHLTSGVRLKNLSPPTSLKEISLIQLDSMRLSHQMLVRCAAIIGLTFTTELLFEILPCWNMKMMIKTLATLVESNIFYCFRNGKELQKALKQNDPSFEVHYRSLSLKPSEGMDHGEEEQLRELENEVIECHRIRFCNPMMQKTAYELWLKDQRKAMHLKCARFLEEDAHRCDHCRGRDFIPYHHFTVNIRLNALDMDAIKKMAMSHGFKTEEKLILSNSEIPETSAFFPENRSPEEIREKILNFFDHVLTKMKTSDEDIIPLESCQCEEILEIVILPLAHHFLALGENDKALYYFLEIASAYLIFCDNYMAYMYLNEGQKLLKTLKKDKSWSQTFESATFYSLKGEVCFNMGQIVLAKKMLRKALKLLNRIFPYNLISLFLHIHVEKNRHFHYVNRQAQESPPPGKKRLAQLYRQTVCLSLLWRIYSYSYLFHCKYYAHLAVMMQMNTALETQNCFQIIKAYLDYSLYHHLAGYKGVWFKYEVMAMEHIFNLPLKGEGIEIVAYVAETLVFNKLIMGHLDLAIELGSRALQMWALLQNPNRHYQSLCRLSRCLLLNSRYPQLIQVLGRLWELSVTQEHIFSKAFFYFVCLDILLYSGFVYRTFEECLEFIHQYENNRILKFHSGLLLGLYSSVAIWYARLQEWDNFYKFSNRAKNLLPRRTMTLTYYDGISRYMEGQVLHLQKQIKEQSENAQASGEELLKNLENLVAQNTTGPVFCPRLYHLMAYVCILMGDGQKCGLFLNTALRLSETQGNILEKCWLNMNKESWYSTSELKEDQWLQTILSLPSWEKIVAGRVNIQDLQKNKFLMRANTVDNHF
IC50 [1] [µM],"Papp at 3 h, 10 µM [2] [×10⁻⁶ cm/s]",logD [3],solubility kinetic [4] [µg/mL],SMILES,also measured
> 1,,,,Cc1ccc(Cc2cn(C)nc2-c2cc(Cl)nc(N)n2)s1,
,25.8,2.5,6.3,Cn1cc(Cc2cccs2)c(-c2cc(Cl)nc(N)n2)n1,
> 1,,,,Cc1cc(-c2nn(C)cc2Cc2cccs2)nc(N)n1,
,25.7,2.8,7.5,Cn1cc(Cc2cccc(F)c2)c(-c2cc(Cl)nc(N)n2)n1,
,28,2.7,0.38,Cc1c(Cc2cccs2)c(-c2cc(Cl)nc(N)n2)nn1C,

# Second part, the compound before the results:
SMILES,IC50 [1] [µM],"Papp at 3 h, 10 µM [2] [×10⁻⁶ cm/s]",logD [3],solubility kinetic [4] [µg/mL],also measured
CNC(=O)c1c(Cc2ccccc2)c(-c2cc(Cl)nc(N)n2)nn1C,> 10,,,,
Cc1c(Cc2ccccc2)c(-c2cc(Cl)nc(N)n2)nn1C,,27.4,2.9,1.3,bioavailability [5]: 59%; AUC at 24 h [6]: 94 µM·h; AUC at 24 h [7]: 72 µM·h; Cmax [8]: 15.5 µM; Cmax [9]: 45 µM; MRT [10]: 3.95 h; MRT [11]: 2.82 h
Nc1nc(Cl)cc(N(Cc2cccs2)C2CC2)n1,,,,,bioavailability [12]: < 5%; microsomal CLint [13]: > 768 µL/min/mg; microsomal CLint [14]: 360 µL/min/mg
Cc1c(Cc2ccnn2C)c(-c2cc(Cl)nc(N)n2)nn1C,> 10,,,,
CN(C)Cc1c(Cc2ccccc2)c(-c2cc(Cl)nc(N)n2)nn1C,> 10,,,,
